Tests used:
[1] = tested on: PDAC cells; test: Clonogenic assay; type: cell-based, human; conditions: for sensitivity of clonogenic growth upon Kras knockdown: 8988T cells expressing shKras; for sensitivity of clonogenic growth upon Kras knockdown / clonogenic growth: FIG. 34; for clonogenic growth: 8988T cells, control shRNA; for rescue of clonogenic growth upon Gln deprivation: Gln-free medium supplemented with metabolite, FIG. 5, 22, 26, 29
Experimental: Cells were plated in 6-well plates at 300 cells per well in 2 mL of media. Cell culture media was not changed throughout the course of the experiment. After 7-10 days, colonies were fixed in 80% methanol and stained with 0.2% crystal violet.

[2] = tested on: PDAC cells; test: Cell proliferation assay (crystal violet); type: cell-based, human; conditions: for PDAC growth (relative growth): 8988T cells treated with inhibitor, FIG. 7A/7B
Experimental: (§1) Cells were plated in 24-well plates at 2,000 cells per well in 0.5 mL of media. To deprive Gln, cells were plated in complete culture medium (10 mM glucose and 2 mM Gln) which was exchanged with Gln-free culture medium supplemented with 10% dFBS the following day. Cell culture media was not changed throughout the course of the experiment. At the indicated time points, cells were fixed in 10% formalin and stained with 0.1% crystal violet. Dye was extracted with 10% acetic acid and the relative proliferation was determined by OD at 595 nm.

[3] = tested on: HPDE (non-transformed human pancreatic ductal epithelial cells); test: Cell proliferation assay, non-transformed pancreatic ductal cells; type: cell-based; conditions: FIG. 30A/30B
Experimental: as §1

[4] = tested on: IMR90 (human diploid fibroblasts); test: Cell proliferation assay, diploid fibroblasts; type: cell-based; conditions: FIG. 30A/30B
Experimental: as §1

[5] = tested on: PDAC cells (8988T, Panc1); test: Sensitization of PDAC cells to ROS / cell viability with GLS inhibitors (Cell Titer Glo); type: cell-based, human; conditions: for relative cell viability (growth suppressive effect): 8988T or Panc1 cells, GLS inhibitor alone, FIG. 36; for relative cell viability, GLS inhibitor combined with H2O2: 8988T, Panc1, 968 or BPTES (100 nM) with increasing H2O2, FIG. 37, 38
Experimental: PDAC cell lines were plated into 96-well plates at 10^3 cells/well in 200 μL of growth medium. The following day, growth medium was replaced with that containing GLS inhibitors and/or H2O2. Parallel plates were analyzed at 3, 6 and 9 days by Cell Titer Glo analysis (Promega), per the manufacturer's instruction. […] BPTES was a kind gift from Jaime Escobedo (Forma Therapeutics, Watertown, Mass.).

[6] = tested on: 8988T cells; test: ROS quantification (DCFDA assay, flow cytometry); type: cell-based, human
Experimental: The DCFDA assay was performed 24 hr after supplementing Gln-free media with either OAA (4 mM) or dimethyl malate (4 mM). Cells were incubated with 5 μM 2′,7′-dichlorodihydrofluorescein diacetate (DCFDA, Invitrogen) for 30 min. Excess DCFDA was removed by washing the cells twice with PBS, and labeled cells were then trypsinized, rinsed, and resuspended in PBS. Oxidation of DCFDA to the highly fluorescent 2′,7′-dichloro-fluorescein (DCF) is proportionate to ROS generation and was analyzed by flow cytometry.

NOCC(=O)O [AOA, aminooxyacetate]
sensitivity of clonogenic growth upon Kras knockdown [1]: significantly more resistant | clonogenic growth [1]: significantly inhibited clonogenic growth | PDAC growth (relative growth) [2]: robustly inhibited the growth | growth (relative growth) of HPDE cells [3]: no significant effect on growth | growth (relative growth) of IMR90 cells [4]: no significant effect on growth

O=C(Cc1ccccc1)Nc1nnc(CCSCCc2nnc(NC(=O)Cc3ccccc3)s2)s1 [BPTES]
relative cell viability (growth suppressive effect) [5]: growth suppressive effect | relative cell viability, GLS inhibitor combined with H2O2 [5]: dramatically augmented

O=C(O[C@@H]1Cc2c(O)cc(O)cc2O[C@@H]1c1cc(O)c(O)c(O)c1)c1cc(O)c(O)c(O)c1 [EGCG, Epigallocatechin Gallate]
sensitivity of clonogenic growth upon Kras knockdown [1]: sensitive | clonogenic growth [1]: minimal effects | PDAC growth (relative growth) [2]: little effect | growth (relative growth) of HPDE cells [3]: significantly sensitive

N[C@@H](CCC(=O)N[C@@H](CS)C(=O)NCC(=O)O)C(=O)O [GSH, reduced glutathione]
rescue of clonogenic growth upon Gln deprivation [1]: dramatically rescued the clonogenic survival

CN(C)c1ccc(C2Nc3ccc4ccccc4c3C3=C2C(=O)CC(C)(C)C3)cc1Br (stereo not shown) [compound 968]
relative cell viability (growth suppressive effect) [5]: growth suppressive effect | relative cell viability, GLS inhibitor combined with H2O2 [5]: dramatically augmented

COC(=O)CCC(=O)C(=O)OC [dimethyl αKG]
rescue of clonogenic growth upon Gln deprivation [1]: did not restore growth

COC(=O)CC(O)C(=O)OC (stereo not shown) [dimethyl-malate]
rescue of PDAC cell growth upon GOT1 knockdown ([2]; 8988T cells expressing shGOT1, 4 mM supplement, FIG. 28): partially rescue PDAC cell growth | rescue of cell proliferation upon Gln deprivation ([2]; Gln-free medium supplemented with metabolite, FIG. 6, 27): partially rescue PDAC cell growth | ROS levels (DCFDA signal) upon GOT1 knockdown ([6]; 8988T cells expressing shGOT1, medium supplementation): rescued the oxidative stress | ROS levels (DCFDA signal) upon Gln deprivation ([6]; Gln-free media supplemented 24 hr, 4 mM): rescued the oxidative stress
